We go through four compounds from patent publication US11530226B2, “Azepane inhibitors of menin-MLL interaction” (Janssen Pharmaceutica NV, priority 2016, dated 2022).

One may read the IC50 as the point on the concentration scale where inhibition reaches its midpoint.

Like-named read-outs stand apart in the source and are kept apart here.

For one assay, the system named is MV-4-1 1 cells (MLL-AF4). As to the kind of experiment: Proliferation assay (spheroid-like growth, 8 d, live-cell imaging), MV-4-11. The assay is classed as cell-based, human. The conditions noted are these: MV-4-11 cells, absolute IC50 from AUC of confluence, read-out: (3) Spheroid assay MV-4-11 (IC50 (μM)). A digest of the protocol: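 Cells seeded in ultra-low attachment wells (1,500 MV-4-11, 300 MOLM14, 750 K562) with compound, 0.3% DMSO, grown 8 d at 37° C. Confluence imaged every four hours; AUC of confluence versus time, relative to vehicle, fitted for absolute IC50.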

The subject of a further assay is MOLM14 cells (MLL-AF9). As to the kind of experiment: Proliferation assay (spheroid-like growth, 8 d, live-cell imaging), MOLM14. The assay is classed as cell-based, human. The conditions noted are these: absolute IC50 from AUC of confluence, read-out: (3) Spheroid assay MOLM14 (IC50 (μM)). Here is the method:
The anti-proliferative effect of menin/MLL protein/protein interaction inhibitor test compounds was assessed in human leukemia cell lines. The cell lines MV-4-1 1 and MOLM14 harbor MEL translocations and express the MEL fusion proteins MLL-AF4 and MLL-AF9, respectively, as well as the wildtype protein from the second allele. […] K562 was used as a control cell line containing two MLL wildtype alleles in order to exclude compounds that display general cytotoxic effects.
MV-4-1 1 and MOLM14 were cultured in RPMI-1640 (Sigma Aldrich) supplemented with 10% fetal bovine serum (HyClone), 2 mM L-glutamine (Sigma Aldrich) and 50 μg/ml gentamycin (Gibco). K562 were propagated in RPMI-1640 (Sigma Aldrich) supplemented with 20% fetal bovine serum (HyClone), 2 mM L-glutamine (Sigma Aldrich) and 50 μg/ml gentamycin (Gibco).
In order to assess the anti-proliferative effects, 1,500 MV-4-1 1, 300 MOLM14 or 750 K562 cells were seeded in 200 μl media per well in 96-well round bottom, ultra-low attachment plates (Costar, catalogue number 7007). Cell seeding numbers were chosen based on growth curves to ensure linear growth throughout the experiment. Test compounds were added at different concentrations and the DMSO content was normalized to 0.3%>. Cells were incubated for 8d at 37° C. and 5% C02. Spheroid like growth was monitored in real-time by live-cell imaging (IncuCyteZOOM, Essenbio, 4× objective) acquiring one image every four hours for 8d. Confluence (%) as a measure of spheroid size was determined using an integrated analysis tool.
In order to determine the cumulative effect of the test compounds over time, the area under the curve (AUC) in a plot of confluence against time was calculated. Confluence at the beginning of the experiment (t=0) was used as baseline for the AUC calculation.
Absolute IC50 values were calculated according to the following procedure: % Control=(AUC sample/AUC control)*100 AUC control=mean AUC of control values(cells without compound/DMSO as vehicle control)
A non-linear curve fit was applied using the least squares (ordinary) fit method to the plot of % control versus compound concentration. Based on this, the absolute IC50 value (half maximal inhibitory concentration of the test compound causing an anti-proliferative effect of 50% relative to the vehicle control) was calculated.

The target of assay [1] is T1, menin / FITC-MBM1 peptide (Menin/MLL) (Homo sapiens, UniProt O00255).
T1 sequence (O00255 1-610): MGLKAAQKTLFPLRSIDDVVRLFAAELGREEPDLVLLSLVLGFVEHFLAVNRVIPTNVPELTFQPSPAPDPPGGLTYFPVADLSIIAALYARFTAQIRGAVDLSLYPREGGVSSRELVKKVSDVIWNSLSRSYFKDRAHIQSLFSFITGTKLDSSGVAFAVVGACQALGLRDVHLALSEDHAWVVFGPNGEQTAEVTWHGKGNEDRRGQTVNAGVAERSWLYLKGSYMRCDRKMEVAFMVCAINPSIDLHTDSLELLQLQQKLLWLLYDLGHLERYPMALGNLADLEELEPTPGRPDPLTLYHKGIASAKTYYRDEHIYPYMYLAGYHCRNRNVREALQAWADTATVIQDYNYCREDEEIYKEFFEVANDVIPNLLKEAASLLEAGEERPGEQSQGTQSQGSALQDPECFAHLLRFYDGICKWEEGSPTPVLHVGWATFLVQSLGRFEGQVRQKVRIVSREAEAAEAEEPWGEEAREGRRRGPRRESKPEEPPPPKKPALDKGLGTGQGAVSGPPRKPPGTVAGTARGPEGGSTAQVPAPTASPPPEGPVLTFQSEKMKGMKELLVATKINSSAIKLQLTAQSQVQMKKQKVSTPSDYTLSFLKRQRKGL
The assay is described as follows: Menin/MLL fluorescence polarization (FP) assay. Type of assay: binding. The conditions noted are these: read-out: (1) Menin FP assay (IC50 (μM)). As to the method: Pharmacological Part 1) Menin/MLL Fluorescence Polarization Assay
To a non-surface binding, black 384-well microtiter plate was added 50 nL 160× test compound in DMSO and 4 μL 2× menin in assay buffer (40 mM TrisHCl, pH 7.5, 50 mM NaCl, 1 mM DTT and 0.001% Tween 20). After incubation of test compound and menin for 10 min at ambient temperature, 4 μL 2×FITC-MBM1 peptide (FITC-β-alanine-SARWRPPARPGT-NH2) in assay buffer was added, the microtiter plate centrifuged at 1000 rpm for 1 min and the assay mixtures incubated for 15 min at ambient temperature. The relative amount of menin -FITC-MBM1 complex present in an assay mixture is determined by measuring the fluorescence polarization (FP) of the FITC label with a BMG Pherastar plate reader (ex. 485 nm/em. 520 nm) at ambient temperature. The final concentrations of reagents in the binding assay are 100 nM menin, 5 nM FITC-MBM1 peptide and 0.625%>DMSO in assay buffer. Dose-response titrations of test compounds are conducted using an 11 point, three-fold serial dilution scheme, starting at 31 μM.
Compound potencies were determined by first calculating % inhibition at each compound concentration according to equation 1: % inhibition=((HC−LC)−(FPcompound−LC))/(HC−LC))*100 (Eqn 1)
Where LC and HC are the FP values of the assay in the presence or absence of a saturating concentration of a compound that competes with FITC-MBM1 for binding to menin, and FP^compound is the measured FP value in the presence of the test compound. HC and LC FP values represent an average of at least 16 replicates per plate.
Where Bottom and Top are the lower and upper asymptotes of the dose-response curve, respectively, IC50 is the concentration of compound that yields 50% inhibition of signal and h is the Hill coefficient.
A general note: Polarisation of emitted light reports the rotation of a fluorescent probe.

As for `CC(C)CNC1CCCN(c2ncnc3sc(CC(F)(F)F)cc23)CC1` (single isomer, unassigned) [Compound B1A, N-isobutyl-1-(6-(2,2,2-trifluoroethyl)thieno[2,3-d]pyrimidin-4-yl)azepan-4-amine], the IC50 in the assay with MV-4-1 1 cells (MLL-AF4) was determined as 2.5 µM; in the assay with MOLM14 cells (MLL-AF9) (Homo sapiens, MOLM-14, 192 h), 11.3 µM; in assay [1], 0.054 µM.

In the case of `CC(C)CNC1CCCN(c2ncnc3sc(CC(F)(F)F)cc23)CC1` (single isomer, unassigned) [Compound B1B, N-isobutyl-1-(6-(2,2,2-trifluoroethyl)thieno[2,3-d]pyrimidin-4-yl)azepan-4-amine], the IC50 is 8.9 µM with MV-4-1 1 cells (MLL-AF4), more than 15 µM in the assay with MOLM14 cells (MLL-AF9) and 0.44 µM in assay [1].

Turning to `FC(F)(F)Cc1cc2c(N3CCC[C@@H](NCc4ccccc4)CC3)ncnc2s1` [Compound 3, (R)N-benzyl-1-(6-(2,2,2-trifluoroethyl)thieno[2,3-d]pyrimidin-4-yl)azepan-4-amine], the IC50 with MV-4-1 1 cells (MLL-AF4) (Homo sapiens, MV4-11, 192 h) was 0.44 µM; with MOLM14 cells (MLL-AF9) (Homo sapiens, MOLM-14, 192 h), 3.1 µM; in assay [1], 0.038 µM.

As to `FC(F)(F)Cc1cc2c(N3CCC[C@H](NCc4ccccc4)CC3)ncnc2s1` [Compound 4, (S)-N-benzyl-1-(6-(2,2,2-trifluoroethyl)thieno[2,3-d]pyrimidin-4-yl)azepan-4-amine], the IC50 with MV-4-1 1 cells (MLL-AF4) (Homo sapiens, MV4-11, 192 h) is 2.9 µM; in the assay on MOLM14 cells (MLL-AF9) (Homo sapiens, MOLM-14, 192 h), 7.6 µM; in assay [1] it was 0.23 µM.
